Data reported in PubChem BioAssay (NCI).
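Values below derive from 48-hour exposures of cells grown in 96-well plates, with endpoints linearly interpolated between the two concentrations bracketing the appropriate inhibition level. TGI: total growth inhibition.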

Tests used:
Assay in all cases: DTP human tumour cell line panel, 48 h
A498 renal = tested on: A498 renal
A549 NSCLC = tested on: A549 NSCLC
ACHN renal = tested on: ACHN renal
BT-549 breast = tested on: BT-549 breast
CAKI-1 renal = tested on: CAKI-1 renal
CCRF-CEM leukemia = tested on: CCRF-CEM leukemia
COLO 205 colon = tested on: COLO 205 colon
DU-145 prostate = tested on: DU-145 prostate
EKVX NSCLC = tested on: EKVX NSCLC
HCC-2998 colon = tested on: HCC-2998 colon
HCT-116 colon = tested on: HCT-116 colon
HCT-15 colon = tested on: HCT-15 colon
HL-60(TB) leukemia = tested on: HL-60(TB) leukemia
HOP-62 NSCLC = tested on: HOP-62 NSCLC
HOP-92 NSCLC = tested on: HOP-92 NSCLC
HS 578T breast = tested on: HS 578T breast
HT29 colon = tested on: HT29 colon
IGROV1 ovarian = tested on: IGROV1 ovarian
K-562 leukemia = tested on: K-562 leukemia
KM12 colon = tested on: KM12 colon
LOX IMVI melanoma = tested on: LOX IMVI melanoma
M14 melanoma = tested on: M14 melanoma
MALME-3M melanoma = tested on: MALME-3M melanoma
MCF7 breast = tested on: MCF7 breast
MDA-MB-231 breast = tested on: MDA-MB-231 breast
MDA-MB-435 = tested on: MDA-MB-435
MDA-N = tested on: MDA-N
MOLT-4 leukemia = tested on: MOLT-4 leukemia
NCI-H226 lung = tested on: NCI-H226 lung
NCI-H23 lung = tested on: NCI-H23 lung
NCI-H460 lung = tested on: NCI-H460 lung
NCI-H522 lung = tested on: NCI-H522 lung
NCI/ADR-RES ovarian = tested on: NCI/ADR-RES ovarian
OVCAR-3 ovarian = tested on: OVCAR-3 ovarian
OVCAR-4 ovarian = tested on: OVCAR-4 ovarian
OVCAR-5 ovarian = tested on: OVCAR-5 ovarian
OVCAR-8 ovarian = tested on: OVCAR-8 ovarian
PC-3 prostate = tested on: PC-3 prostate
RPMI-8226 leukemia = tested on: RPMI-8226 leukemia
RXF 393 renal = tested on: RXF 393 renal
SF-268 CNS = tested on: SF-268 CNS
SF-295 CNS = tested on: SF-295 CNS
SF-539 CNS = tested on: SF-539 CNS
SK-MEL-2 melanoma = tested on: SK-MEL-2 melanoma
SK-MEL-28 melanoma = tested on: SK-MEL-28 melanoma
SK-MEL-5 melanoma = tested on: SK-MEL-5 melanoma
SK-OV-3 ovarian = tested on: SK-OV-3 ovarian
SN12C renal = tested on: SN12C renal
SNB-19 CNS = tested on: SNB-19 CNS
SNB-75 CNS = tested on: SNB-75 CNS
SR leukemia = tested on: SR leukemia
SW-620 colon = tested on: SW-620 colon
T-47D breast = tested on: T-47D breast
TK-10 renal = tested on: TK-10 renal
U251 CNS = tested on: U251 CNS
UACC-257 melanoma = tested on: UACC-257 melanoma
UACC-62 melanoma = tested on: UACC-62 melanoma
UO-31 renal = tested on: UO-31 renal

## CC(C)(C)OC(=O)NC(Cc1ccc(OCc2ccccc2)cc1)C(=O)NC(COCc1ccccc1)C(=O)Oc1c(Cl)c(Cl)c(Cl)c(Cl)c1Cl (stereo not drawn)
A498 renal
  TGI: 53.2 µM
A549 NSCLC
  TGI: 89.7 µM
ACHN renal
  TGI: 76.6 µM
BT-549 breast
  TGI: 38.3 µM
CAKI-1 renal
  TGI: 47.4 µM
CCRF-CEM leukemia
  TGI: > 100 µM
COLO 205 colon
  TGI: 36.5 µM
DU-145 prostate
  TGI: 46.8 µM
EKVX NSCLC
  TGI: 82.4 µM
HCC-2998 colon
  TGI: 40.5 µM
HCT-116 colon
  TGI: 30.1 µM
HCT-15 colon
  TGI: 33.5 µM
HL-60(TB) leukemia
  TGI: > 100 µM
HOP-62 NSCLC
  TGI: 32.9 µM
HOP-92 NSCLC
  TGI: 32.8 µM
HS 578T breast
  TGI: 41.8 µM
HT29 colon
  TGI: 69.7 µM
IGROV1 ovarian
  TGI: 41.7 µM
K-562 leukemia
  TGI: > 100 µM
KM12 colon
  TGI: 39 µM
LOX IMVI melanoma
  TGI: 53 µM
M14 melanoma
  TGI: 42.9 µM
MALME-3M melanoma
  TGI: 68.2 µM
MCF7 breast
  TGI: 48.2 µM
MDA-MB-231 breast
  TGI: 27.6 µM
MDA-MB-435
  TGI: 56.7 µM
MDA-N
  TGI: 80.8 µM
MOLT-4 leukemia
  TGI: > 100 µM
NCI-H226 lung
  TGI: 54.5 µM
NCI-H23 lung
  TGI: 35.6 µM
NCI-H460 lung
  TGI: 36.7 µM
NCI-H522 lung
  TGI: 42 µM
NCI/ADR-RES ovarian
  TGI: 50 µM
OVCAR-3 ovarian
  TGI: 28.9 µM
OVCAR-4 ovarian
  TGI: 85.3 µM
OVCAR-5 ovarian
  TGI: 67.3 µM
OVCAR-8 ovarian
  TGI: 52.6 µM
PC-3 prostate
  TGI: 40.4 µM
RPMI-8226 leukemia
  TGI: > 100 µM
RXF 393 renal
  TGI: 63.9 µM
SF-268 CNS
  TGI: 65.6 µM
SF-295 CNS
  TGI: 52.4 µM
SF-539 CNS
  TGI: 29.7 µM
SK-MEL-2 melanoma
  TGI: 36.6 µM
SK-MEL-28 melanoma
  TGI: 71.8 µM
SK-MEL-5 melanoma
  TGI: 33.7 µM
SK-OV-3 ovarian
  TGI: 46.9 µM
SN12C renal
  TGI: 62.4 µM
SNB-19 CNS
  TGI: > 100 µM
SNB-75 CNS
  TGI: > 100 µM
SR leukemia
  TGI: > 100 µM
SW-620 colon
  TGI: 73 µM
T-47D breast
  TGI: 88.5 µM
TK-10 renal
  TGI: 85.8 µM
U251 CNS
  TGI: 38.1 µM
UACC-257 melanoma
  TGI: 84.8 µM
UACC-62 melanoma
  TGI: 32.3 µM
UO-31 renal
  TGI: 30.7 µM
